Assay results reported in US10941158B2, “Pyrazole ACC inhibitors and uses thereof” (Gilead Apollo, LLC, priority 2015, dated 2021).
Converted amounts (≈) assume the structure as drawn. Where two headings read alike, the source gives them in different places.

How the values were obtained:
[1] = test system: C. parapsilosis ATCC 22019; test: Anti-Fungal (Candida) Activity Assay, broth microtiter MIC; type: cell-based; details: Lodderomyces parapsilosis, read-out: MIC C. parapsilosis ATCC 22019
In short: (§1)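 Test compounds were dissolved in DMSO at 1 mg/mL (stock) and challenged against direct colony suspensions in RPMI 1640 with MOPS under CLSI M27-A3 broth microdilution. Growth was judged by eye relative to drug-free control after 48 h.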

C. albicans ATCC 90028 = test: as above; type: cell-based; details: read-out: MIC C. albicans ATCC 90028
In short: as §1

C. krusei ATCC 6258 = test: as above; type: cell-based; details: Pichia kudriavzevii, read-out: MIC C. krusei ATCC 6258
In short: as §1

human (hACC2) ACC2 = human (hACC2) ACC2 (Homo sapiens, UniProt O00763); test: In vitro Acetyl-CoA Carboxylase (ACC) inhibition assay (ADP-Glo), hACC2; type: biochemical
Chain of human (hACC2) ACC2 (O00763 whole entry): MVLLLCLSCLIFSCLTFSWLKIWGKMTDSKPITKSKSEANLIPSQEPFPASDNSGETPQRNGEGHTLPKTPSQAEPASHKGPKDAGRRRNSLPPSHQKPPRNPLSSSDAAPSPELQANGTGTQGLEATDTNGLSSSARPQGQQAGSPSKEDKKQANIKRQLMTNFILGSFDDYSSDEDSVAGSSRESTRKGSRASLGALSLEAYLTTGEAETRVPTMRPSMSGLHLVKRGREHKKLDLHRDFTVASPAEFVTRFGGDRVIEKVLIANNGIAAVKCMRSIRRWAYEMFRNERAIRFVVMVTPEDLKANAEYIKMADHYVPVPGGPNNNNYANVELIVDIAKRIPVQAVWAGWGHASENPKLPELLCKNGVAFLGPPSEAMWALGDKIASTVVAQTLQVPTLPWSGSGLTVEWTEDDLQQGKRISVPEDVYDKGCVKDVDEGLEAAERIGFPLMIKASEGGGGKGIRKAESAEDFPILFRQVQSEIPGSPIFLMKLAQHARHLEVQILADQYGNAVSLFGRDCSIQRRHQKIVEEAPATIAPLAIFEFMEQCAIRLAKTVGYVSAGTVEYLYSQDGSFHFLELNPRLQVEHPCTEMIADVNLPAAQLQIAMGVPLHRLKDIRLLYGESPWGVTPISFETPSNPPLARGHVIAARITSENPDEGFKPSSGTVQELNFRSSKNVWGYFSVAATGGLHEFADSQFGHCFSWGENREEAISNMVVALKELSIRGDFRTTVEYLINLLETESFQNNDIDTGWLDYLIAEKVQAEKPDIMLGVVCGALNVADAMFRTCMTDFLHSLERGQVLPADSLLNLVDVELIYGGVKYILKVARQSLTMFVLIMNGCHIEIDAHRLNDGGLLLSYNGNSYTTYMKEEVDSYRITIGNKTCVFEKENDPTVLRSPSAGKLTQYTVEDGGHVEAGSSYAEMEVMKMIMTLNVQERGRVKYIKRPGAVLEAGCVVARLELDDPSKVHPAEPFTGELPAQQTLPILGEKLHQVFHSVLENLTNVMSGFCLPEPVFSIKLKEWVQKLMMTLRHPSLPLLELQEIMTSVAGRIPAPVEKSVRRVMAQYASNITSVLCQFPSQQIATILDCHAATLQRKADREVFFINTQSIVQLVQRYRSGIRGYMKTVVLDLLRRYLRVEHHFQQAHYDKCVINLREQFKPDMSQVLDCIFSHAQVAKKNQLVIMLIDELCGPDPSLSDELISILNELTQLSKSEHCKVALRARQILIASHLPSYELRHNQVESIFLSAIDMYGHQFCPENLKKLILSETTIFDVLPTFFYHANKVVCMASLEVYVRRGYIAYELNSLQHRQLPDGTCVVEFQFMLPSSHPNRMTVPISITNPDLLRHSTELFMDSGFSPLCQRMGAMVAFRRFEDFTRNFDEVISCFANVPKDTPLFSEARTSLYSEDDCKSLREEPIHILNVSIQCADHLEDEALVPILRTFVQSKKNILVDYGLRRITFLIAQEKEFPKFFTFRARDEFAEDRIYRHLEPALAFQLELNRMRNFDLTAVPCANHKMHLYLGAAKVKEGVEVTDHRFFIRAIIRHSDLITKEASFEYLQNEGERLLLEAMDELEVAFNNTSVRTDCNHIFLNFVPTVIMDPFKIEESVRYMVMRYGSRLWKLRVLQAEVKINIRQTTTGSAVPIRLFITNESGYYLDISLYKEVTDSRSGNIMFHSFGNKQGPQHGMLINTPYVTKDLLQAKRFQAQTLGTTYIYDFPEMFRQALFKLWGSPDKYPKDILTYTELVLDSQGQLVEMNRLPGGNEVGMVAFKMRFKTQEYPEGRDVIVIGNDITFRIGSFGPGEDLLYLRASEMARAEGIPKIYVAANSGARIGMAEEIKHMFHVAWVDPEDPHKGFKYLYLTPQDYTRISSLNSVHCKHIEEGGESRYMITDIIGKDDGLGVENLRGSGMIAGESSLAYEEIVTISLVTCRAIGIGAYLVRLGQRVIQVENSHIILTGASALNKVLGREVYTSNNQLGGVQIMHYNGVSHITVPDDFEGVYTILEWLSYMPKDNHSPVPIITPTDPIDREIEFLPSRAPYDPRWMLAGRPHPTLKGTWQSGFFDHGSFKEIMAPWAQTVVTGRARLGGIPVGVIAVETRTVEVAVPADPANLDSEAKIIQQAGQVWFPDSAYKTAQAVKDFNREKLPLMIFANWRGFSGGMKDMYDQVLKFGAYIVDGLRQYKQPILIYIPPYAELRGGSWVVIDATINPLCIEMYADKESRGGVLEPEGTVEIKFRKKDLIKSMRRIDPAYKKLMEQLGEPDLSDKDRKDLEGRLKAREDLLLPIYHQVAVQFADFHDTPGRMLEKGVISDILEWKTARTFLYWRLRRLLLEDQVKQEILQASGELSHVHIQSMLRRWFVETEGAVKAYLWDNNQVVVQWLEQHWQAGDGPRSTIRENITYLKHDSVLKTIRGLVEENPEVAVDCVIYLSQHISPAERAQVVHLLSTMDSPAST
Description: The detailed procedure is as follows. […] 10 μL ADP glo reagent was added. […] 20 μL kinase detection reagent was added.
“NA” stands for “not assayed.”

[2] = test system: Collectotrichum graminicola (Cg); test: Growth inhibition assay of fungal pathogens; type: cell-based; details: 48 h, read-out: Concentration at 90% Inhibition Cg
In short: (§2)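 Liquid-culture assay in which test compounds are applied at three final concentrations (50, 10, 2 ppm or 2, 0.4, 0.08 ppm). Inoculum levels follow 48 h growth curves for each fungus. Growth is monitored by OD600 and by eye, and the 48 h values give % inhibition against DMSO.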

[3] = test system: Fusarium virguliforme (Fv); test: Growth inhibition assay of fungal pathogens; type: cell-based; details: 48 h
In short: as §2

Rhizoctonia solani (Rs) = test: Growth inhibition assay of fungal pathogens; type: cell-based; details: 48 h, read-out: Concentration at 90% Inhibition Rs
In short: (§3)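 Percent growth inhibition was derived from 48 h OD600 and visual scores relative to 2% DMSO, with blank background subtraction. Fungi were grown from spores in 17% V8 liquid medium, R. solani from 1.5 mm plugs in ¼ PDB, with compound at final 50/10/2 or 2/0.4/0.08 ppm.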

Botrtyis cinerea (Bc) = test: Growth inhibition assay of fungal pathogens; type: cell-based; details: 48 h, read-out: Concentration at 90% Inhibition Bc
In short: as §3

[4] = test system: Phytophthora capsici (Pc); test: Growth inhibition assay of fungal pathogens; type: cell-based; details: for IC90: Phytophthora capsici, read-out: Concentration at 90% Inhibition Pc
In short: as §2

Septoria tritici (St) = test: Growth inhibition assay of fungal pathogens; type: cell-based; details: for IC90: Zymoseptoria tritici, read-out: Concentration at 90% Inhibition St
In short: as §2

Diplodia maydis (Dm) = test: Growth inhibition assay of fungal pathogens; type: cell-based; details: Stenocarpella maydis, 48 h, read-out: Concentration at 90% Inhibition Dm
In short: as §3

[5] = test system: Fusarium moniliforme (Fm); test: Growth inhibition assay of fungal pathogens; type: cell-based; details: for IC90: Fusarium verticillioides, 48 h, read-out: Concentration at 90% Inhibition Fm
In short: as §3

fungal (fACC2) ACC2 = fungal (fACC2) ACC2 (UniProt Q00955); details: read-out: fACC2 IC50; fungal ACC2, ADP-Glo
Chain of fungal (fACC2) ACC2 (Q00955 whole entry): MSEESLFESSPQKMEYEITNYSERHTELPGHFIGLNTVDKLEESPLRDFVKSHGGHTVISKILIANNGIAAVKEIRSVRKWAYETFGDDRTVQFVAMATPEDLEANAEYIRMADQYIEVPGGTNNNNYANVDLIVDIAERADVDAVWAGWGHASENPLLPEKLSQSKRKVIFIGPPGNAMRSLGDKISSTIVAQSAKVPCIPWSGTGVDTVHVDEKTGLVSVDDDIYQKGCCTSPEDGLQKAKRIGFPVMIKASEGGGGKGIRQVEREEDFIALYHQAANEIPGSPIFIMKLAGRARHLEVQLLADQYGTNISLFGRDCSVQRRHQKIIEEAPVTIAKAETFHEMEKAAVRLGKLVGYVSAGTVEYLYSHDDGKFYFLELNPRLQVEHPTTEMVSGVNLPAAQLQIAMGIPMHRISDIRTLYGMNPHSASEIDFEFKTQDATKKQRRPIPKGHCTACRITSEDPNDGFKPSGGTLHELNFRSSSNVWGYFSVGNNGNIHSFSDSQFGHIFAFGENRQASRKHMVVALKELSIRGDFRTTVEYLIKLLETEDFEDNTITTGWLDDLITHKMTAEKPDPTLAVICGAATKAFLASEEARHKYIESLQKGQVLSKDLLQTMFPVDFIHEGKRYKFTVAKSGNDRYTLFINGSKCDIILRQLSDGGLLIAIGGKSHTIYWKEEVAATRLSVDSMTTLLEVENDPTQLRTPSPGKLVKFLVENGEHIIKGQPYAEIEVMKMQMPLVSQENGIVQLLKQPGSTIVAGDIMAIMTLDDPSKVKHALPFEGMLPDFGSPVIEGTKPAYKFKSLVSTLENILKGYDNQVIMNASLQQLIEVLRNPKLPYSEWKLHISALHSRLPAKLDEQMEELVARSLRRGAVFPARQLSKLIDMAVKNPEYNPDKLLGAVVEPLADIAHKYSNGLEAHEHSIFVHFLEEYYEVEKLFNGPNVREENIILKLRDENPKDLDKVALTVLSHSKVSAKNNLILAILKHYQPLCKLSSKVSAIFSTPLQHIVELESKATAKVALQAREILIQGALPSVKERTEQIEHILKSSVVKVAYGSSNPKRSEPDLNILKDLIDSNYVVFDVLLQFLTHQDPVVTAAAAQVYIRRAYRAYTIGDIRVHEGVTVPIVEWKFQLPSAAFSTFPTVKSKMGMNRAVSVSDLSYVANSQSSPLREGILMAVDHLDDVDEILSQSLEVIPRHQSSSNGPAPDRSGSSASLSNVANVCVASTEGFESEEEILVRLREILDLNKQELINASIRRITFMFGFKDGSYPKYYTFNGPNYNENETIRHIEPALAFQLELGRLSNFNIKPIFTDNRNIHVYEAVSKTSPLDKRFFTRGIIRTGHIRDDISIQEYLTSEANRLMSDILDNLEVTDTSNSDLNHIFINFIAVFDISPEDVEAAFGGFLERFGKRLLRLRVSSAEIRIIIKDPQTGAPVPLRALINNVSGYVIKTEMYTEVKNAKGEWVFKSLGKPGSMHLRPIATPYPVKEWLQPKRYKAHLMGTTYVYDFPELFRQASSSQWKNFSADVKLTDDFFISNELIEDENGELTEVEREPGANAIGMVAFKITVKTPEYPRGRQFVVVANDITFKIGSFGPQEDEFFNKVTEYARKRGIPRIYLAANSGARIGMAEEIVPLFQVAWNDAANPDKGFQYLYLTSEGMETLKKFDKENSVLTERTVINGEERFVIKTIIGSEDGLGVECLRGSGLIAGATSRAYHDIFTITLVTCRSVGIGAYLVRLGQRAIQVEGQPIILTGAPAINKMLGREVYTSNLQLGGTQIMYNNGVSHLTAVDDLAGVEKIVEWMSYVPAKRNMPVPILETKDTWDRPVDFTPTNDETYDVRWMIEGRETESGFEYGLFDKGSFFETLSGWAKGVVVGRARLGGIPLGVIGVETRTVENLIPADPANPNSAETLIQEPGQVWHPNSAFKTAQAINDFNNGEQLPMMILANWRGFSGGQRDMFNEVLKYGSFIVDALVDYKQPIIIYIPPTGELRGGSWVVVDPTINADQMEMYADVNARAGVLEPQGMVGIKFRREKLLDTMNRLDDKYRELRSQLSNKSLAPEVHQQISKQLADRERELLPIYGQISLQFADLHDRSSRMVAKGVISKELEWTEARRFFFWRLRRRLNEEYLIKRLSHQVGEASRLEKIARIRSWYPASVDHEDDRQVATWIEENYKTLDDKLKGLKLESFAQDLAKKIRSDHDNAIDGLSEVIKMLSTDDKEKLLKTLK

[6] = ATCC22019, 3 replicates, MIC recorded at 48 h
[7] = ATCC90028, 3 replicates, MIC recorded at 48 h
[8] = ATCC6258, 3 replicates, MIC recorded at 48 h
[9] = Table 4a, 48 hours, read-out: Concentration at 90% Inhibition Fv
[10] = Table 4b, 48 hours, read-out: Concentration at 90% Inhibition Fv
[11] = read-out: Concentration at 90% Inhibition Fv, Table 4a, 48 hours
[12] = read-out: Concentration at 90% Inhibition Fv, Table 4b, 48 hours

Row | SMILES | MIC [1, 6] | MIC (C. albicans ATCC 90028; [7]) | MIC (C. krusei ATCC 6258; [8]) | IC50 (human (hACC2) ACC2) | IC90 ([2]; Table 4a) | IC90 ([2]; Table 4b) | IC90 [3, 9] | IC90 [3, 10] | IC90 (Rhizoctonia solani (Rs); Table 4a) | IC90 (Rhizoctonia solani (Rs); Table 4b) | IC90 (Botrtyis cinerea (Bc); Table 4a) | IC90 (Botrtyis cinerea (Bc); Table 4b) | IC90 ([4]; Table 4a, 48 hours) | Concentration at 90% Inhibition Pc ([4]; Table 4b, 48 hours) | Concentration at 90% Inhibition St (Septoria tritici (St); Table 4b, 48 hours) | IC90 (Septoria tritici (St); Table 4a, 48 hours) | IC90 (Diplodia maydis (Dm); Table 4a) | IC90 (Diplodia maydis (Dm); Table 4b) | IC90 ([5]; Table 4a, 48 hours) | IC50 (fungal (fACC2) ACC2) | also measured
1 | COc1ccc(F)cc1[C@H](Cn1c(=O)n(CC(=O)N2CCCC2)c(=O)c2c(C)c(-n3cccn3)sc21)OC(C)C [Compound I-28, (R)-1-(2-(5-fluoro-2-methoxyphenyl)-2-isopropoxyethyl)-5-methyl-3-(2-oxo-2-(pyrrolidin-1-yl)ethyl)-6-(1H-pyrazol-1-yl)thieno[2,3-d]pyrimidine-2,4(1H,3H)-dione] | 0.25 to 1 µg/mL (≈ 0.439 to 1.76 µM) | 0.25 to 1 µg/mL (≈ 0.439 to 1.76 µM) | 0.25 to 1 µg/mL (≈ 0.439 to 1.76 µM) | 10 to 40 nM | > 50 µg/mL | 10 µg/mL (≈ 17.6 µM) | 2 µg/mL (≈ 3.51 µM) | 2 µg/mL (≈ 3.51 µM) | 10 µg/mL (≈ 17.6 µM) | 2 µg/mL (≈ 3.51 µM) | 2 µg/mL (≈ 3.51 µM) | 2 µg/mL (≈ 3.51 µM) | > 50 µg/mL | D (“D” provided a compound concentration of >50 ppm at 90% inhibition of fungal pathogens) | D (“D” provided a compound concentration of >50 ppm at 90% inhibition of fungal pathogens) | > 50 µg/mL | > 50 µg/mL | > 50 µg/mL | 0.4 µg/mL (≈ 0.702 µM) | 0.6 to 3 nM | IC90 ([5]; Table 4b, 48 hours): 0.4 µg/mL (≈ 0.702 µM)
2 | COc1ccc(F)cc1[C@H](Cn1c(=O)n(C(C)C(=O)NC(C)C)c(=O)c2c(C)c(-n3cccn3)sc21)OC(C)C (stereo partly drawn) [Compound I-29, 2-(1-((R)-2-(5-fluoro-2-methoxyphenyl)-2-isopropoxy-ethyl)-5-methyl-2,4-dioxo-6-(1H-pyrazol-1-yl)-1,4-dihydrothieno[2,3-d]pyrimidin-3(2H)-yl)-N-isopropylpropanamide] |  |  |  | 10 to 40 nM | 2 µg/mL (≈ 3.5 µM) | 2 µg/mL (≈ 3.5 µM) |  |  | 2 µg/mL (≈ 3.5 µM) | 2 µg/mL (≈ 3.5 µM) | 2 µg/mL (≈ 3.5 µM) | 2 µg/mL (≈ 3.5 µM) |  |  |  |  | 2 µg/mL (≈ 3.5 µM) | 2 µg/mL (≈ 3.5 µM) |  | 0.6 to 3 nM | MIC ([1]; ATCC22019, 48 h): > 4.1 µg/mL; MIC (C. albicans ATCC 90028; ATCC90028, 48 h): 1.1 to 2 µg/mL (≈ 1.92 to 3.5 µM); MIC (C. krusei ATCC 6258; ATCC6258, 48 h): 2.1 to 4 µg/mL (≈ 3.67 to 7 µM); IC90 [3, 11]: 2 µg/mL (≈ 3.5 µM); IC90 [3, 12]: 2 µg/mL (≈ 3.5 µM); IC90 ([4]; 48 h, Table 4a): > 50 µg/mL; IC90 ([4]; 48 h, Table 4b): > 50 µg/mL; IC90 (Septoria tritici (St); 48 h, Table 4a): > 50 µg/mL; IC90 (Septoria tritici (St); 48 h, Table 4b): > 50 µg/mL; IC90 [5]: 0.4 µg/mL (≈ 0.7 µM); Concentration at 90% Inhibition Fm ([5]; Table 4b, 48 hours): A (“A” provided a compound concentration of 0.4 ppm at 90% inhibition of fungal pathogens)
3 | COc1ccc(F)cc1[C@H](Cn1c(=O)n([C@H](C)C(=O)NC(C)C)c(=O)c2c(C)c(-n3cccn3)sc21)OC(C)C [Compound I-30, (R)-2-(1-((R)-2-(5-fluoro-2-methoxyphenyl)-2-isopropoxyethyl)-5-methyl-2,4-dioxo-6-(1H-pyrazol-1-yl)-1,4-dihydrothieno[2,3-d]pyrimidin-3(2H)-yl)-N-isopropylpropanamide] |  |  |  | 3 to 10 nM | 2 µg/mL (≈ 3.5 µM) | 2 µg/mL (≈ 3.5 µM) |  |  | 2 µg/mL (≈ 3.5 µM) | 2 µg/mL (≈ 3.5 µM) | 2 µg/mL (≈ 3.5 µM) | 2 µg/mL (≈ 3.5 µM) |  |  |  |  | 2 µg/mL (≈ 3.5 µM) | 2 µg/mL (≈ 3.5 µM) |  | 0.6 to 3 nM | MIC ([1]; ATCC22019, 48 h): 0.25 to 1 µg/mL (≈ 0.437 to 1.75 µM); MIC (C. albicans ATCC 90028; ATCC90028, 48 h): 0.25 to 1 µg/mL (≈ 0.437 to 1.75 µM); MIC (C. krusei ATCC 6258; ATCC6258, 48 h): 0.25 to 1 µg/mL (≈ 0.437 to 1.75 µM); IC90 [3, 11]: 0.4 µg/mL (≈ 0.7 µM); IC90 [3, 12]: 0.4 µg/mL (≈ 0.7 µM); IC90 ([4]; 48 h, Table 4a): > 50 µg/mL; IC90 ([4]; 48 h, Table 4b): > 50 µg/mL; IC90 (Septoria tritici (St); 48 h, Table 4a): > 50 µg/mL; IC90 (Septoria tritici (St); 48 h, Table 4b): > 50 µg/mL; IC90 [5]: 0.4 µg/mL (≈ 0.7 µM); Concentration at 90% Inhibition Fm ([5]; Table 4b, 48 hours): A (“A” provided a compound concentration of 0.4 ppm at 90% inhibition of fungal pathogens)
4 | COc1ccc(F)cc1[C@H](Cn1c(=O)n([C@@H](C)C(=O)N2CCCC2)c(=O)c2c(C)c(-n3cccn3)sc21)OC(C)C [Compound I-31, 1-((R)-2-(5-fluoro-2-methoxyphenyl)-2-isopropoxyethyl)-5-methyl-3-((S)-1-oxo-1-(pyrrolidin-1-yl)propan-2-yl)-6-(1H-pyrazol-1-yl)thieno[2,3-d]pyrimidine-2,4(1H,3H)-dione] | 2.1 to 4 µg/mL (≈ 3.6 to 6.85 µM) | 1.1 to 2 µg/mL (≈ 1.88 to 3.43 µM) | 2.1 to 4 µg/mL (≈ 3.6 to 6.85 µM) | 3 to 10 nM | 0.4 µg/mL (≈ 0.685 µM) | 0.4 µg/mL (≈ 0.685 µM) | 0.4 µg/mL (≈ 0.685 µM) | 0.4 µg/mL (≈ 0.685 µM) | 2 µg/mL (≈ 3.43 µM) | 2 µg/mL (≈ 3.43 µM) | 0.4 µg/mL (≈ 0.685 µM) | 0.4 µg/mL (≈ 0.685 µM) | > 50 µg/mL | D (“D” provided a compound concentration of >50 ppm at 90% inhibition of fungal pathogens) | D (“D” provided a compound concentration of >50 ppm at 90% inhibition of fungal pathogens) | > 50 µg/mL | 0.4 µg/mL (≈ 0.685 µM) | 0.4 µg/mL (≈ 0.685 µM) | 0.08 µg/mL (≈ 0.137 µM) | 0.6 to 3 nM | IC90 ([5]; Table 4b, 48 hours): 0.08 µg/mL (≈ 0.137 µM)
5 | COc1ccc(F)cc1[C@H](Cn1c(=O)n(C(C)C(=O)N2CCCC2)c(=O)c2c(C)c(-n3cccn3)sc21)OC(C)C (stereo partly drawn) [Compound I-32, 1-((R)-2-(5-fluoro-2-methoxyphenyl)-2-isopropoxyethyl)-5-methyl-3-(1-oxo-1-(pyrrolidin-1-yl)propan-2-yl)-6-(1H-pyrazol-1-yl)thieno[2,3-d]pyrimidine-2,4(1H,3H)-dione] | > 4.1 µg/mL | 2.1 to 4 µg/mL (≈ 3.6 to 6.85 µM) | 2.1 to 4 µg/mL (≈ 3.6 to 6.85 µM) | 3 to 10 nM | 0.4 µg/mL (≈ 0.685 µM) | 0.4 µg/mL (≈ 0.685 µM) | 0.4 µg/mL (≈ 0.685 µM) | 0.4 µg/mL (≈ 0.685 µM) | 2 µg/mL (≈ 3.43 µM) | 2 µg/mL (≈ 3.43 µM) | 0.4 µg/mL (≈ 0.685 µM) | 0.4 µg/mL (≈ 0.685 µM) | > 50 µg/mL | D (“D” provided a compound concentration of >50 ppm at 90% inhibition of fungal pathogens) | D (“D” provided a compound concentration of >50 ppm at 90% inhibition of fungal pathogens) | > 50 µg/mL | 2 µg/mL (≈ 3.43 µM) | 2 µg/mL (≈ 3.43 µM) | 0.08 µg/mL (≈ 0.137 µM) | 0.6 to 3 nM | IC90 ([5]; Table 4b, 48 hours): 0.08 µg/mL (≈ 0.137 µM)
